Read-outs that look alike come from different tables or passages of the source.
Columns and labels:
BTK2 = BTK2 (Homo sapiens, UniProt Q06187); test: scanMAX KINOMEscan (Eurofins); type: binding
FYN = FYN (Homo sapiens, UniProt P06241); type: cell-based; details: HEK-293T; 1 μM inhibitor, HEK293T cells
How it was run: (§1)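 HEK293T cells reverse-transfected with K192 kinase-NanoLuc vectors (FuGene HD) and expressed for 20 h. Tracer K10 added at kit-recommended concentrations, inhibitor at 1 μM in alternate wells. Filtered luminescence read at 450 nm donor and 610 nm acceptor; occupancy calculated per kinase.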

ULK3 = ULK3 (Homo sapiens, UniProt Q6PHR2); type: cell-based; details: HEK-293T; 1 μM inhibitor, HEK293T cells
How it was run: as §1

RIPK2 = RIPK2 (Homo sapiens, UniProt O43353); type: cell-based; details: HEK-293T; 1 μM inhibitor, HEK293T cells
How it was run: as §1

MAP4K5 = MAP4K5 (Homo sapiens, UniProt Q9Y4K4); type: cell-based; details: HEK-293T; 1 μM inhibitor, HEK293T cells
MAP4K5, sequence (Q9Y4K4 whole entry): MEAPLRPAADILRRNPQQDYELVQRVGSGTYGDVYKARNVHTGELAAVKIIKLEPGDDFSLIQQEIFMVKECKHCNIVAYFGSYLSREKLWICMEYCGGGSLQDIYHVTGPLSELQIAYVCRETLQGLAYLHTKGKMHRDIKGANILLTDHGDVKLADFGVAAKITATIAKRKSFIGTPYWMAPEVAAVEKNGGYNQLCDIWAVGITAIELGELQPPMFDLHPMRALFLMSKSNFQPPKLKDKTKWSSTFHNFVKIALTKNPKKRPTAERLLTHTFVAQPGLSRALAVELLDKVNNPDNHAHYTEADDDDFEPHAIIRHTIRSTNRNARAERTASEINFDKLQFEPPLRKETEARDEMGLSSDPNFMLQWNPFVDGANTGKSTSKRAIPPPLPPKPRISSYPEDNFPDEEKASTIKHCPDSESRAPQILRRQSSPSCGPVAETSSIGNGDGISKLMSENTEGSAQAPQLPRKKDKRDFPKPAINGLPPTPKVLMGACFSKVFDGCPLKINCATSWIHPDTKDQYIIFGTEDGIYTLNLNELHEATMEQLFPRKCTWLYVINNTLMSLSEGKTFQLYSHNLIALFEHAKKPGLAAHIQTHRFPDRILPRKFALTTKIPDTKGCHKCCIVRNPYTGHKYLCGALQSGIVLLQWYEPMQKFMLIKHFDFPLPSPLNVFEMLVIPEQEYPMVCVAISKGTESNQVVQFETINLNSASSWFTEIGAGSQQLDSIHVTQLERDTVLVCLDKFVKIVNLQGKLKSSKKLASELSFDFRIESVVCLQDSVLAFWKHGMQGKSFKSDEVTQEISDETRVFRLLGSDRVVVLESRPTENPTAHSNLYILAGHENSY
How it was run: as §1

ABL2 = ABL2 (Homo sapiens, UniProt P42684); type: cell-based; details: HEK-293T; 1 μM inhibitor, HEK293T cells
ABL2, sequence (P42684 whole entry): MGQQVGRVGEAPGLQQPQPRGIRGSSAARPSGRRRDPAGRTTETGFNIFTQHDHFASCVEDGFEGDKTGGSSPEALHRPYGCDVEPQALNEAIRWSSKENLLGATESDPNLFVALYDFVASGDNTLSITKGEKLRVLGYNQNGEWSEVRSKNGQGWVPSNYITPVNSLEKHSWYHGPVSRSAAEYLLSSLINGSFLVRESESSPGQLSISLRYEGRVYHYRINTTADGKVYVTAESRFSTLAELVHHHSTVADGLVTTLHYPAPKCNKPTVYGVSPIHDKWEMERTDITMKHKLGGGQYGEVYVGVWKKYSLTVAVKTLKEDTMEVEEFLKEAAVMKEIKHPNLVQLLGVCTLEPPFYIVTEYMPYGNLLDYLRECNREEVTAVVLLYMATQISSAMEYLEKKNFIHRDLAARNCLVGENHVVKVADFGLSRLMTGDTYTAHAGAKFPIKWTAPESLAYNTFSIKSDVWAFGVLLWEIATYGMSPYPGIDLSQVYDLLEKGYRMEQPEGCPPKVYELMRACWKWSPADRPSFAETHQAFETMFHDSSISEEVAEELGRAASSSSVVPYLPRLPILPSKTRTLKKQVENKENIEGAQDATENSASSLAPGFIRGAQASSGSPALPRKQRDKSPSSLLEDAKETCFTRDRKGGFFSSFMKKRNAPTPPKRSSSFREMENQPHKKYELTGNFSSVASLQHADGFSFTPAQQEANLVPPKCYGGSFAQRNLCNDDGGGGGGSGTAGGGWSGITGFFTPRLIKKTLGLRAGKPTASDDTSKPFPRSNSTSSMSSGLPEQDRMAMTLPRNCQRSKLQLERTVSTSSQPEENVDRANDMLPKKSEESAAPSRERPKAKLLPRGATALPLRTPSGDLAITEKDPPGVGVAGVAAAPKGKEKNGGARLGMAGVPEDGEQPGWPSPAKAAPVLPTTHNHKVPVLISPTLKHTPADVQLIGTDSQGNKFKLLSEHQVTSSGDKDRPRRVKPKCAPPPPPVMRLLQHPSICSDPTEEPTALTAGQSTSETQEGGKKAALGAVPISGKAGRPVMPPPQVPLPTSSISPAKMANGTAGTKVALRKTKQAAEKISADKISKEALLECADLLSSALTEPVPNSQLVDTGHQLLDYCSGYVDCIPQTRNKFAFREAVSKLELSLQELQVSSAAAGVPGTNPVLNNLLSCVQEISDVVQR
How it was run: as §1

KIT(D816H) = KIT(D816H) (Homo sapiens, UniProt P10721, D816H); test: biochemical; type: binding; details: 1000 nM, read-out: Percent Control
[1] = target: ABL1(T315I)-nonphosphorylated (Homo sapiens, UniProt P00519, T315I); test: biochemical; type: binding; details: read-out: Percent Control
[2] = target: ABL1(F317L)-phosphorylated (Homo sapiens, UniProt P00519, F317L); test: biochemical; type: binding; details: compound concentration 100 nM; Entrez ABL1; read-out: Percent Control
[3] = target: ABL1(T315I)-phosphorylated (Homo sapiens, UniProt P00519, T315I); test: biochemical; type: binding; details: read-out: Percent Control
BRAF(V600E) [4] = target: T1, BRAF(V600E) (Homo sapiens, UniProt P15056, V600E); test: biochemical; type: binding; details: 1000 nM, read-out: Percent Control
T1 sequence (P15056 whole entry V600E): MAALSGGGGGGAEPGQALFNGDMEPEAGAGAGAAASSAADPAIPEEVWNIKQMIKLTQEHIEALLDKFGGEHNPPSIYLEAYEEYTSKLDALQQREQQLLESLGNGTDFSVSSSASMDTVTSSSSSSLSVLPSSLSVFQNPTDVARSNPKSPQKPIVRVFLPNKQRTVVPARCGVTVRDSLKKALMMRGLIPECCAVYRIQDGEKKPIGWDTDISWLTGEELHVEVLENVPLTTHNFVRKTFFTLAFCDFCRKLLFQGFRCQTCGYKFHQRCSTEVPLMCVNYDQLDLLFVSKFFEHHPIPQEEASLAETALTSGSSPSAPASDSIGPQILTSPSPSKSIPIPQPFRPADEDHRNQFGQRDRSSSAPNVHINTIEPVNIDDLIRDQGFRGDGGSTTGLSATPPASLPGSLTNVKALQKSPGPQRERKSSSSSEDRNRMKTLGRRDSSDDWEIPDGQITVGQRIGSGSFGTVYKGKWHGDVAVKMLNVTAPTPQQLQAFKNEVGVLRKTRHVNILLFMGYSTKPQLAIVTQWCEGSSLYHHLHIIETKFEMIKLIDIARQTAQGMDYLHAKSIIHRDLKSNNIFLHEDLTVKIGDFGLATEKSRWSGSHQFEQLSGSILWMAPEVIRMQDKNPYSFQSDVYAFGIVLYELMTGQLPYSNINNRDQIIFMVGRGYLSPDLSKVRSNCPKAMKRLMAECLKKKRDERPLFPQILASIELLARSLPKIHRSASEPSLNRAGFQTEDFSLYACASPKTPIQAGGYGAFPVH

BRAF(V600E) [5] = target: T1, BRAF(V600E); test: cell-based; details: HEK-293T; 1 μM inhibitor, HEK293T cells
[6] = target: ABL1(Q252H)-nonphosphorylated (Homo sapiens, UniProt P00519, Q252H); test: biochemical; type: binding; details: read-out: Percent Control
EGFR(L858R) [7] = target: T2, EGFR(L858R) (Homo sapiens, UniProt P00533, L858R); test: biochemical; type: binding; details: compound concentration 100 nM; Entrez EGFR; read-out: Percent Control
T2 sequence (P00533 25-1210 L858R): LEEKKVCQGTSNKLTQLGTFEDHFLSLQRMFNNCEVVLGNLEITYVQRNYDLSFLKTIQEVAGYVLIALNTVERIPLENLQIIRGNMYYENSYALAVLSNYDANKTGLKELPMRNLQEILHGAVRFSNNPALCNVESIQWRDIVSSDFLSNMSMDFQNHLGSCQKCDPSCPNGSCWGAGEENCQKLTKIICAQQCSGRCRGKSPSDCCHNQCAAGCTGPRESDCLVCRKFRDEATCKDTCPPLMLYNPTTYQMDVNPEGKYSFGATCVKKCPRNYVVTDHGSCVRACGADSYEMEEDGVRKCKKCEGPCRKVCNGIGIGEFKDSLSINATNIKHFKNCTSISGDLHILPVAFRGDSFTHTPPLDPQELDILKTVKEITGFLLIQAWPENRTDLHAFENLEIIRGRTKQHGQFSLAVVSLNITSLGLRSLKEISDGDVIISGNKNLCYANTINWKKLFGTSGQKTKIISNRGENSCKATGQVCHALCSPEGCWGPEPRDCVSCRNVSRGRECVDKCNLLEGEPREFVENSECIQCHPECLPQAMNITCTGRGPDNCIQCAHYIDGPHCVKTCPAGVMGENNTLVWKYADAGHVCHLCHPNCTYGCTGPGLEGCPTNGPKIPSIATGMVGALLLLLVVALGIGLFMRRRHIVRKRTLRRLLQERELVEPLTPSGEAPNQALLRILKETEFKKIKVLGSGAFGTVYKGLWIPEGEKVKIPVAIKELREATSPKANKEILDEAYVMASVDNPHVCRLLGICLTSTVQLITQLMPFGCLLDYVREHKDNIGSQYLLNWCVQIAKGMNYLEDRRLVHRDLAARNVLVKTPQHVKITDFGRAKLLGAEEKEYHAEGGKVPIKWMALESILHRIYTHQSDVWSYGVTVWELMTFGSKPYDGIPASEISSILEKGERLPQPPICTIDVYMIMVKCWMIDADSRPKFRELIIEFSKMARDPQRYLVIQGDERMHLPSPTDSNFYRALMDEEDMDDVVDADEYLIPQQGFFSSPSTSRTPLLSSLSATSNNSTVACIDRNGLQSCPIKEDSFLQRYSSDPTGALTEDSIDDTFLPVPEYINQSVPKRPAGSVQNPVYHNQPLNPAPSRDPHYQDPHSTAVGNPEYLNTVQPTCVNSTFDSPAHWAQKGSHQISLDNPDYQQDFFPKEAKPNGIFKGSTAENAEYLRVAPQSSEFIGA

EGFR(L858R) [8] = target: T2, EGFR(L858R); test: biochemical; type: binding; details: 1000 nM, read-out: Percent Control

BTK2, sequence (Q06187 whole entry): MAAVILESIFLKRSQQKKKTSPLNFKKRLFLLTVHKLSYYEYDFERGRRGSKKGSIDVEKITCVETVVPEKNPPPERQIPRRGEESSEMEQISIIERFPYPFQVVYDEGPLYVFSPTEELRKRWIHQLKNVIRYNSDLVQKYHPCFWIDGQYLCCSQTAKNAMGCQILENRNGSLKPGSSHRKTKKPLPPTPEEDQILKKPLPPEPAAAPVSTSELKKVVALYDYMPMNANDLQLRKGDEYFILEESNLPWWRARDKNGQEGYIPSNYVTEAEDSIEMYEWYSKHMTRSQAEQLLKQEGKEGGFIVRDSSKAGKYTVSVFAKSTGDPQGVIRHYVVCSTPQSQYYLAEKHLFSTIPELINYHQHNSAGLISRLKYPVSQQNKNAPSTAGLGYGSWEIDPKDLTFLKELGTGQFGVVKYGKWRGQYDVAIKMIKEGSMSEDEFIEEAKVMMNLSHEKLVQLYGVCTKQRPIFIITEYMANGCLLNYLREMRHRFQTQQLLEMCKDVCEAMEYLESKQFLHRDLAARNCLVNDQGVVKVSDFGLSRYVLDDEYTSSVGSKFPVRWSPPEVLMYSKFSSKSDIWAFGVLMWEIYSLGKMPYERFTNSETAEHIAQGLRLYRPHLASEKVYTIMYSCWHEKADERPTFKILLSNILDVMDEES

`CN1C(=O)[C@@H](N2CCc3c(nn(Cc4ccccc4)c3C(N)=O)C2=O)COc2cc(Cl)ccc21` [Compound 10, (S)-2-benzyl-6-(8-chloro-5-methyl-4-oxo-2,3,4,5-tetrahydrobenzo[b][1,4]oxazepin-3-yl)-7-oxo-4,5,6,7-tetrahydro-2H-pyrazolo[3,4-c]pyridine-3-carboxamide] gave a remaining binding at 1 µM (BTK2; BTK2, 1 μM, read-out: POC (Top Hits @ 1 μM)) of 55%, a remaining binding at 0.1 µM (BTK2; BTK (Entrez BTK), 100 nM, read-out: Percent Control) of 62% and a remaining binding at 1 µM (BTK2; BTK, 1000 nM, read-out: Percent Control) of 55%. For the same compound, the receptor occupancy at 1 µM (FYN) was 5.88%, the receptor occupancy at 1 µM (ULK3) was 1.52% and the receptor occupancy at 1 µM (RIPK2) was -1.2%. It also gave a receptor occupancy at 1 µM (MAP4K5) of 16.7%, a receptor occupancy at 1 µM (ABL2) of 6.33% and a remaining activity at 1 µM (KIT(D816H)) of 97%. The remaining activity at 1 µM [1] was 73%, the remaining activity at 0.1 µM [2] was 100% and the remaining activity at 1 µM [3] was 99%. For the same compound, the remaining activity at 1 µM (BRAF(V600E) [4]) was 100%, the receptor occupancy at 1 µM (BRAF(V600E) [5]) was -9.8% and the remaining activity at 1 µM [6] was 79%. The remaining activity at 0.1 µM (EGFR(L858R) [7]) was 100% and the remaining activity at 1 µM (EGFR(L858R) [8]) was 100%.

— PMC12090182, “Repurposing of the RIPK1-Selective Benzo[1,4]oxazepin-4-one Scaffold for the Development of a Type III LIMK1/2 Inhibitor” (ACS Chemical Biology, 2025)
